Tested on: Neisseria meningitidis MC58
Test: Activity at Neisseria meningitidis B MC58 (ATCC BAA355) recombinant 3-deoxy-D-manno-octulosonate 8-phosphate synthase expressed in Escherichia coli BL21 (DE3)

`O=C[C@@H](O)[C@H](O)[C@@H](O)COP(=O)(O)O` showed a kcat of 1.1 s⁻¹.

For `O=C[C@@H](O)[C@H](O)[C@H](O)COP(=O)(O)O`, the kcat was 2.7 s⁻¹.
